Results taken from patent EP1067939B1, “USE OF STEROIDAL ALKALOID DERIVATIVES AS INHIBITORS OF HEDGEHOG PROTEIN SIGNALING PATHWAYS” (The Johns Hopkins University, priority 1998, dated 1999).
Like-named read-outs stand apart in the source and are kept apart here.

Key:
rat hepatoma cells = experiment: Cholesterol Esterification Assay (esterification of plasma membrane cholesterol); format: cell-based
Text: Table 1. […] Table 1. Effects of synthetic and plant-derived compounds on cholesterol homeostasis. […]

endogenous Shh signaling = experiment: Midline neural plate/notochord explant assay of endogenous Shh signaling; format: cell-based, chick
Shh = target: T1, Shh (Mus musculus, UniProt Q62226); experiment: Shh processing in transiently-transfected COS-7 or QT6 cells; format: cell-based
T1 construct: expressed in transfected cells; host or cells: HK293 cells, Ecdysone-Inducible Mammalian Expression System (Invitrogen)
T1 sequence (Q62226 25-437): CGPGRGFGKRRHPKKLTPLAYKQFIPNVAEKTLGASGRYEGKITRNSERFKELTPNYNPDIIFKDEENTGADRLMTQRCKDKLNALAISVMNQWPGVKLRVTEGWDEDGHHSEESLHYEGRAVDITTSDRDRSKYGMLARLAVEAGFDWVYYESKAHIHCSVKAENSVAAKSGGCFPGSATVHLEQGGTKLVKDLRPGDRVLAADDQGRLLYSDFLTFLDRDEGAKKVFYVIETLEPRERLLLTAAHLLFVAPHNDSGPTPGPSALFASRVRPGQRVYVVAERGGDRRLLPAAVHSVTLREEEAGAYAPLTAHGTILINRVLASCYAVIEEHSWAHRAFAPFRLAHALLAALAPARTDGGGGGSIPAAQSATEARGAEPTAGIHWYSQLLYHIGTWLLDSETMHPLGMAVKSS

His6Hh-C = target: T2, His6Hh-C (Drosophila melanogaster, UniProt Q02936); experiment: In vitro Hh autoprocessing reaction with purified components; format: biochemical; conditions: for interference with cholesterol-stimulated autoprocessing: 12 µM cholesterol, 3 hours at 30° C, up to 27-fold excess to cholesterol; for His6Hh-C autocleavage reaction in the presence of compound without sterol: absence of cholesterol, up to 324 µM
T2 construct: made in house
T2 sequence (Q02936 252-471): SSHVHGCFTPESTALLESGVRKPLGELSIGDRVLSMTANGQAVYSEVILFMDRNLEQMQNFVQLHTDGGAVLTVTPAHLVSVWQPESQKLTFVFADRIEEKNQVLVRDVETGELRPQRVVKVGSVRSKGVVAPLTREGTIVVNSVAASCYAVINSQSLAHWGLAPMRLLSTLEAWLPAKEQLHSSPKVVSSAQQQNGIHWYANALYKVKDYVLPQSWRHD

Shh-N = experiment: Intermediate neural plate explant response to exogenous Shh-N protein; format: cell-based, chick
Ptc -/- MEFs = experiment: β-galactosidase activity in ptc-lacZ mouse embryonic fibroblasts; format: cell-based; conditions: Ptc -/- MEFs 21-4, 16 hours (Figure 15)
Text: These studies involve the use of mouse embryonic fibroblasts (MEFs) that were generated by trypsin digestion of E8.5 embryos from patched (ptc) +/- matings.
The MEF line 23-4 is heterozygous for ptc-lacZ, and thus contains one functional ptc allele capable of maintaining a repressed state of the pathway, but will express lacZ when the pathway is activated by addition of Shh protein (see Figure 12).

vibrissa follicle = experiment: Vibrissa follicle explant cultures; format: cell-based, mouse
Procedure: Vibrissa follicle explants were established using CD- I mouse embryos at 13.5 days of gestation according to a previously described protocol (Hirai et al., 1989), with minor midifications. Vibrissa pads were transferred onto Nuclepore filters (13 mm, 8 µm pores), and floated on, 2 ml of medium [DMEM (Life Technologies. Gaithersburg, MD) + Ham's F12 medium (Life Technologies) (1:1), with 1% FCS (Intergen, Purchase. NY), penicillin (50 units/ml) and streptomycin (50 gg/ml) (Life Technologies)] in 6-well plates. […] Explants were fed fresh medium every two days. Microdissection was performed with the aid of a Nikon SMZ-2T stereomicroscope and photomicrographs were taken using an Olympus OM-4 camera. Cycloparnine was stored at -20 as a 10 mM stock in 95% EtOH.
RNA was obtained by solubilizing individual explants in TriZol (Life Sciences) and isolating as recommended by the manufacturer. cDNA was synthesized using SuperScript II Rnase H reverse transcriptase with random primers (Life Technologies), and RT-PCR performed using the following primers: MHKA1 (318 bp product), (forward 5'-[…]-3' and reverse 5'-[…]-3'); hacl-1 (308 bp product), (forward 5'-[…].3 and reverse 5'-[…]-3'); profilaggrin (330 bp product), (forward 5-[…]-3' and reverse 5'-[…]-3') (Bickenbach et al., 1995); P actin (421 bp product), (for-ward 5'-[…]-3' and reverse 5'[…]-3') (Walterhouse et al., 1993). The following PCR conditions were used for MHKA1. […]
Explants were established using vibrissa pads obtained from mice at 13.5 days of gestation (Hirai et al., 1989). […] These follicles contained hair shafts and expressed genes encoding mouse hair keratin A I (MHKA 1) (Kaytes et al., 199 1) and a hair cortex-specific marker Hacl- 1 (Huh et al., 1994), detected by RT-PCR (Fig. 11B). […] In keeping with our results obtained using Shh mutant skin, hair-specific transcripts are detected in cycloparnine-treated grafts (Fig. 11B) despite their altered development, providing further support for the notion that biochemical differentiation of the follicle is not necessarily coupled to its morphogenesis.

[1] = read-out: Percent Inhibition (incorporation of label into cholesteryl ester*) ^3H-Cholesterol
[2] = read-out: Percent Inhibition (incorporation of label into cholesteryl ester*) ^14C-Oleic Acid
[3] = cultured vibrissa explants, RT-PCR

C[C@H]1CC[C@]2(NC1)O[C@H]1C[C@H]3[C@@H]4CC[C@H]5C[C@@H](O)CC[C@]5(C)[C@H]4CC[C@]3(C)[C@H]1[C@@H]2C [Tomatidine, tomatidine]
inhibition at 2.5 µM (rat hepatoma cells; 2.5 µM, read-out: Percent Inhibition (incorporation of label into cholesteryl ester*) ^3H-Cholesterol): 31%
inhibition at 2.5 µM (rat hepatoma cells; 2.5 µM, read-out: Percent Inhibition (incorporation of label into cholesteryl ester*) ^14C-Oleic Acid): 30%
inhibition at 5 µM (rat hepatoma cells; 5.0 µM, read-out: Percent Inhibition (incorporation of label into cholesteryl ester*) ^3H-Cholesterol): 33%
inhibition at 5 µM (rat hepatoma cells; 5.0 µM, read-out: Percent Inhibition (incorporation of label into cholesteryl ester*) ^14C-Oleic Acid): 64%
inhibition at 10 µM (rat hepatoma cells; 10 µM, read-out: Percent Inhibition (incorporation of label into cholesteryl ester*) ^3H-Cholesterol): 39%
inhibition at 10 µM (rat hepatoma cells; 10 µM, read-out: Percent Inhibition (incorporation of label into cholesteryl ester*) ^14C-Oleic Acid): 52%
expression of HNF3β and Isl-1 (endogenous Shh signaling; midline explants, 50 µM (Fig. 3C)): unable to block expression of HNF3β and Isl-1
Shh processing efficiency (Shh): did not observe any effect
interference with cholesterol-stimulated autoprocessing (His6Hh-C): does not interfere with autoprocessing
His6Hh-C autocleavage reaction in the presence of compound without sterol (His6Hh-C): does not proceed
concentrations producing partial inhibition relative to those required for complete inhibition by jervine and cyclopamine (Shh-N): 100200 fold
concentration that inhibits the repression of Pax7 expression by 2 nM Shh-N (Shh-N; 2 nM Shh-N, 20 hours): > 50 µM
effect on HNF3β and Isl-1 induction (Shh-N; 50 µM, 25 nM Shh-N): markedly reduces HNF3β induction and enhances Isl1-1 induction
effect on HNF3β and Isl-1 expression (Shh-N; Tomatidine at 25 nM (so in the source), 25 nM Shh-N): slight inhibitory effect
reduction of β-galactosidase activity (Ptc -/- MEFs): cannot he achieved

CC1=C2C[C@H]3[C@@H](CC=C4C[C@@H](O)CC[C@@]43C)[C@@H]2CC[C@]12O[C@@H]1C[C@H](C)CN[C@H]1[C@H]2C [Cyclopamine, cyclopamine]
inhibition at 2.5 µM (rat hepatoma cells; [1]): 48%
inhibition at 5 µM (rat hepatoma cells; [1]): 67%
inhibition at 10 µM (rat hepatoma cells; [1]): 79%
inhibition at 2.5 µM (rat hepatoma cells; [2]): 45%
inhibition at 5 µM (rat hepatoma cells; [2]): 62%
inhibition at 10 µM (rat hepatoma cells; [2]): 74%
Higher doses that fully inhibit HNF3β and Isl-1 induction (endogenous Shh signaling): 1.0 µM
Intermediate doses that block induction of HNF3β while permitting induction of Isl-1 (endogenous Shh signaling): 0.25 µM
interference with cholesterol-stimulated autoprocessing (His6Hh-C): does not interfere with autoprocessing
His6Hh-C autocleavage reaction in the presence of compound without sterol (His6Hh-C): does not proceed
concentration that inhibits the repression of Pax7 expression by 2 nM Shh-N (Shh-N): 0.0625 µM
doses at which HNF3β and Isl-1 induction are completely blocked (Shh-N): 0.25 µM
intermediate levels at which induction of HNF3β is blocked while induction of Isl-1 is maintained or expanded (Shh-N): 0.125 µM
late-stage follicle differentiation markers (vibrissa follicle; [3]): detected
profilaggrin mRNA (epidermal differentiation) (vibrissa follicle; [3]): accumulate profilaggrin mRNA
Morphogenesis of vibrissa follicles (vibrissa follicle; cyclopamine present in the medium for the duration of the experiment, concentration printed as I ∼M): blocked
